# In patent publication US4528027A, “Acylthio-substituted triazines” (Shell Oil Company, priority 1984, dated 1985):
# Assay: Approximate solubility in xylene at room temperature
# Assay type: physicochemical
# Settings: not given
row,Compound,"Approximate Solubility at Room Temperature, Grams of Compound per 100 Grams of Xylene"
1,"CCN(SC(=O)OC)c1nc(NC(C)C)nc(OC)n1 [Compound 14, 2-methoxy-4-(1-methylethylamino)-6-(N-ethyl-N-((methoxycarbonyl)thio))-1,3,5-triazine]",> 150 Grams of Compound per 100 Gram
2,CCN(SC(=O)OC)c1nc(Cl)nc(NC(C)C)n1 [Compound 5],> 150 Grams of Compound per 100 Gram
3,"CCN(SC(=O)OC)c1nc(NC(C)C)nc(SC)n1 [Compound 15, 2-(methylthio)-4-(1-methylethylamino)-6-(N-ethyl-N-((methoxycarbonyl)thio))-1,3,5-triazine]",> 150 Grams of Compound per 100 Gram
4,"CCN(SC(=O)OC)c1nc(Cl)nc(NC(C)(C)C#N)n1 [Compound 1, 2-chloro-4-(1-cyano-1-methylethylamino)-6-(N-ethyl-N-((methoxycarbonyl)thio))-1,3,5-triazine]",26 Grams of Compound per 100 Gram

# Same assay, conditions: xylene, room temperature
row,Compound,"Approximate Solubility at Room Temperature, Grams of Compound per 100 Grams of Xylene"
1,"CCNc1nc(NC(C)C)nc(OC)n1 [Compound 14A, 2-methoxy-4-(1-methylethylamino)-6-ethylamino-1,3,5-triazine, reference compound]",25 Grams of Compound per 100 Gram
2,"CCNc1nc(Cl)nc(NC(C)(C)C#N)n1 [Compound 1B, 2-chloro-4-(1-cyano-1-methylethylamino)-6-ethylamino-1,3,5-triazine, reference compound]",0.3 Grams of Compound per 100 Gram
